These results are taken from patent US9238639B2, “Aromatic ring compound” (TAKEDA PHARMACEUTICAL COMPANY LIMITED, priority 2012, dated 2016).

The structures appear in SMILES notation.

For the assay, the target named is T1, human GOAT (Homo sapiens, UniProt Q96T53).
T1 construct: made in house; host or cells: Sf9 insect cells (BacToBac baculovirus, pFastBac1 vector); microsome fraction
T1 sequence (Q96T53 1-435): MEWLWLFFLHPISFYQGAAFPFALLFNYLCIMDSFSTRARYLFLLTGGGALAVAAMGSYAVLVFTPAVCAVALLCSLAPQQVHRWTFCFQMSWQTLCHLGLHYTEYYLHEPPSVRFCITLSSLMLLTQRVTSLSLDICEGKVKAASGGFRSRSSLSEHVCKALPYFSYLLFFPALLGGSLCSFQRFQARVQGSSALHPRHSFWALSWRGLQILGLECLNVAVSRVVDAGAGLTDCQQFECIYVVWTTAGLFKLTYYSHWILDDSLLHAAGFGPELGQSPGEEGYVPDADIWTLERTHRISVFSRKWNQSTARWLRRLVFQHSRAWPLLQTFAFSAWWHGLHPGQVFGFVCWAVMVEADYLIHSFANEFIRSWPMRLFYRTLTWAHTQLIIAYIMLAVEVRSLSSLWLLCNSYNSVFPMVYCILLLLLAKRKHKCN
Kind of assay: GOAT enzyme activity measurement by HTRF method (human GOAT-expressing microsome fraction). It is filed as biochemical. The settings on record: 10 μM compound; human GOAT-expressing Sf9 microsome fraction; octanoyl-CoA and Ghrelin-biotin substrates; 0% control without compound, 100% control without enzyme. As to the method:
Human GOAT (Accession NO: EU518495) cDNA was amplified by PCR including reaction of (1) 98° C., 1 min, (2) 35 repeats of 98° C., 10 sec·65° C., 15 sec·72° C., 80 sec, and (3) 72° C., 5 min, using human stomach cDNA library (Takara Bio) as a template and Pyrobest DNA Polymerase (Takara Bio). The amplified fragment was treated with restriction enzymes, inserted into Stu I/Not I sites of pFastBacl (Invitrogen) by using Ligation High (TOYOBO), and transfected into ECOS JM109 (Nippon Gene) to construct pFB/hGOAT.
Production of Baculovirus and Preparation of Insect Cell Microsome Fraction
For preparation of baculovirus from pFB/hGOAT, BacToBac baculovirus expression system (Invitrogen) was used. The virus titer was measured by Real-Time PCR using SYBR Green (Takara Bio). Sf9 cells were infected with the obtained baculovirus at Multiplicity of Infection (MOI)=0.2, and cultured for 70 hr. The Sf9 cells were recovered, suspended in a suspension buffer (TBS (0.3 M NaCl), 1 mM DTT, 1 mM EDTA, Complete (Roche) (1 tablet/50 mL)), and the cells were disrupted twice on ice at 20000 rpm, 30 sec using a polytron homogenizer. The cell disruption solution was centrifuged at 1000 rpm for 10 min at 4° C., the supernatant was further ultracentrifuged at 40000 rpm for 30 min at 4° C. and the precipitate was recovered. The obtained precipitate was suspended in the suspension buffer used above to give a human GOAT-expressing microsome fraction. The protein level was measured using BCA Protein assay Reagent (PIERCE).
Enzyme Activity Measurement by HTRF Method
A compound solution (2 μL) diluted with an assay buffer containing 50 mM Tris-HCl (pH 7.5), 0.5% TWEEN20, and Complete to 15% DMSO and 90 μg/mL human GOAT-expressing microsome fraction (2 μL) were incubated at room temperature for 20 min, after which a substrate mixed solution (2 μL) containing 30 μM octanoyl-CoA (CHEM-IMPLEX) and 3 μM Ghrelin-biotin ([…]epsilon aminocaproic acid-biotin (Greiner Coutom synthesis)) was added to 384 white small volume plate (Greiner). After reaction for 20 min, 2 μL of citrate buffer (pH3) (mixed solution of 0.1 M citric acid (39.8 mL) and 0.2 M Na2HPO4 (10.2 mL)), 2 μL of 25 nM anti-active ghrelin antibody (produced in mouse), 5 μL of Eu(K)-Anti Mouse IgG Pab (Cis Bio) 100-fold diluted with HTRF detection buffer (Cis Bio) and 5 μL of streptavidin-Xlent (Cis Bio) 66.6-fold diluted with HTRF detection buffer (Cis Bio) were added. After incubation at room temperature for 1 hr or longer, the fluorescence values at 620 nm and 665 nm were measured by Envision (PerkinElmer). The data was calculated [(665 nm signal/620 nm signal)×10^4], and the inhibitory activity against human GOAT was shown by the data where 0% control was without compound, and 100% control was without enzyme.

For the compound `CCOC(=O)Cc1csc2cc(OCc3ccc(Cl)cc3Cl)ccc12` [Example 1, Ethyl(6-((2,4-dichlorobenzyl)oxy)-1-benzothiophen-3-yl)acetate], the inhibition at 10 µM turned out to be 69%.

Regarding `O=C(O)Cc1csc2cc(OCc3ccc(Cl)cc3Cl)ccc12` [Example 2, (6-((2,4-Dichlorobenzyl)oxy)-1-benzothiophen-3-yl)acetic acid], the inhibition at 10 µM amounted to 99.2%.

For `CCOC(=O)Cc1csc2cc(OCc3ccc(C)nc3C)ccc12` [Example 3, Ethyl(6-((2,6-dimethylpyridin-3-yl)methoxy)-1-benzothiophen-3-yl)acetate], the inhibition at 10 µM was 92.8%.

In the case of `Cc1ccc(COc2ccc3c(CC(=O)O)csc3c2)c(C)n1` [Example 4, (6-((2,6-Dimethylpyridin-3-yl)methoxy)-1-benzothiophen-3-yl)acetic acid], the inhibition at 10 µM was determined as 99%.

With `COC(=O)Cc1csc2cc(OCc3ccc(Cl)cc3Cl)cc(C)c12` [Example 5, Methyl(6-((2,4-dichlorobenzyl)oxy)-4-methyl-1-benzothiophen-3-yl)acetate], the inhibition at 10 µM stood at 84.4%.

Consider `Cc1cc(OCc2ccc(Cl)cc2Cl)cc2scc(CC(=O)O)c12` [Example 6, (6-((2,4-Dichlorobenzyl)oxy)-4-methyl-1-benzothiophen-3-yl)acetic acid], for which the inhibition at 10 µM was 103%.

On to `COC(=O)Cc1csc2cc(OCc3cc(C)nn3C)cc(C)c12` [Example 7, Methyl(6-((1,3-dimethyl-1H-pyrazol-5-yl)methoxy)-4-methyl-1-benzothiophen-3-yl)acetate], for which the inhibition at 10 µM turned out to be 94.7%.

On to `Cc1cc(COc2cc(C)c3c(CC(=O)O)csc3c2)n(C)n1` [Example 8, (6-((1,3-Dimethyl-1H-pyrazol-5-yl)methoxy)-4-methyl-1-benzothiophen-3-yl)acetic acid], for which the inhibition at 10 µM was 95.6%.

Regarding `COC(=O)Cc1csc2cc(OCc3ccc(C(F)(F)F)nc3C)cc(C)c12` [Example 9, Methyl(4-methyl-6-((2-methyl-6-(trifluoromethyl)pyridin-3-yl)methoxy)-1-benzothiophen-3-yl)acetate], the inhibition at 10 µM came out at 93.8%.

Consider `Cc1nc(C(F)(F)F)ccc1COc1cc(C)c2c(CC(=O)O)csc2c1` [Example 10, (4-Methyl-6-((2-methyl-6-(trifluoromethyl)pyridin-3-yl)methoxy)-1-benzothiophen-3-yl)acetic acid], for which the inhibition at 10 µM came out at 99.2%.

With `COC(=O)Cc1csc2cc(OCc3cc(C(F)(F)F)nn3C)cc(C)c12` [Example 11, Methyl(4-methyl-6-((1-methyl-3-(trifluoromethyl)-1H-pyrazol-5-yl)methoxy)-1-benzothiophen-3-yl)acetate], the inhibition at 10 µM was determined as 95.2%.

For `Cc1cc(OCc2cc(C(F)(F)F)nn2C)cc2scc(CC(=O)O)c12` [Example 12, (4-Methyl-6-((1-methyl-3-(trifluoromethyl)-1H-pyrazol-5-yl)methoxy)-1-benzothiophen-3-yl)acetic acid], the inhibition at 10 µM turned out to be 104%.

With `COC(=O)Cc1csc2cc(OCc3ccc(C)nc3C)cc(Cl)c12` [Example 13, Methyl(4-chloro-6-((2,6-dimethylpyridin-3-yl)methoxy)-1-benzothiophen-3-yl)acetate], the inhibition at 10 µM worked out at 96.5%.

On to `Cc1ccc(COc2cc(Cl)c3c(CC(=O)O)csc3c2)c(C)n1` [Example 14, (4-Chloro-6-((2,6-dimethylpyridin-3-yl)methoxy)-1-benzothiophen-3-yl)acetic acid], for which the inhibition at 10 µM was found to be 107%.

Take `COC(=O)Cc1csc2cc(OCc3ccc(C(F)(F)F)nc3C)cc(Cl)c12` [Example 15, Methyl(4-chloro-6-((2-methyl-6-(trifluoromethyl)pyridin-3-yl)methoxy)-1-benzothiophen-3-yl)acetate]: the inhibition at 10 µM was 91.6%.

Turning to `Cc1nc(C(F)(F)F)ccc1COc1cc(Cl)c2c(CC(=O)O)csc2c1` [Example 16, (4-Chloro-6-((2-methyl-6-(trifluoromethyl)pyridin-3-yl)methoxy)-1-benzothiophen-3-yl)acetic acid], the inhibition at 10 µM turned out to be 101%.
